Test results reported in the NIST ThermoML archive (doi:10.1021/je049762q).
Several values for one entry are separate records, joined by “and”; a condition that tells them apart may be missing. Identical values can stand only once.

Assay: molar heat capacity at constant pressure
Details: 101.33 kPa, Crystal

Clc1cc(Cl)cc(Cl)c1 [1,3,5-trichlorobenzene]
Details | molar heat capacity at constant pressure
6.3 K | 0.73 J/K/mol
6.76 K | 1.13 J/K/mol
7.5 K | 1.88 J/K/mol
7.61 K | 1.64 J/K/mol
8.27 K | 2.46 J/K/mol
8.49 K | 2.76 J/K/mol
9.54 K | 3.28 J/K/mol
9.57 K | 3.32 J/K/mol
10 K | 3.78 J/K/mol
10.48 K | 4.28 J/K/mol
10.78 K | 4.56 J/K/mol
11.23 K | 4.67 J/K/mol
11.76 K | 5.07 J/K/mol
12.18 K | 5.67 J/K/mol
13.16 K | 7.41 J/K/mol
14.33 K | 8.56 J/K/mol
14.68 K | 9.1 J/K/mol
15 K | 9.58 J/K/mol
16.47 K | 11.78 J/K/mol
16.54 K | 11.86 J/K/mol
18.11 K | 14.04 J/K/mol
18.46 K | 14.51 J/K/mol
19.49 K | 16.03 J/K/mol
20 K | 16.74 J/K/mol
20.47 K | 17.39 J/K/mol
20.67 K | 17.88 J/K/mol
21.77 K | 19.17 J/K/mol
22.76 K | 20.24 J/K/mol
24.03 K | 21.5 J/K/mol
25 K | 22.66 J/K/mol
25.53 K | 23.3 J/K/mol
26.89 K | 24.95 J/K/mol
26.99 K | 25.08 J/K/mol
28.15 K | 26.53 J/K/mol
29.75 K | 28.33 J/K/mol
30 K | 28.58 J/K/mol
32.12 K | 30.66 J/K/mol
34.24 K | 32.73 J/K/mol
36.16 K | 34.21 J/K/mol
37.93 K | 35.9 J/K/mol
39.58 K | 37.3 J/K/mol
40 K | 37.64 J/K/mol
41.88 K | 39.13 J/K/mol
44.77 K | 41.44 J/K/mol
47.4 K | 43.42 J/K/mol
49.84 K | 45.24 J/K/mol
50 K | 45.36 J/K/mol
52.12 K | 46.94 J/K/mol
54.28 K | 48.44 J/K/mol
56.33 K | 49.86 J/K/mol
58.29 K | 51.22 J/K/mol
60 K | 52.37 J/K/mol
60.17 K | 52.49 J/K/mol
61.98 K | 53.68 J/K/mol
63.73 K | 54.83 J/K/mol
65.43 K | 55.89 J/K/mol
67.08 K | 56.99 J/K/mol
68.68 K | 57.99 J/K/mol
70 K | 58.81 J/K/mol
70.25 K | 58.96 J/K/mol
71.78 K | 59.87 J/K/mol
73.27 K | 60.75 J/K/mol
74.74 K | 61.66 J/K/mol
76.18 K | 62.52 J/K/mol
77.59 K | 63.36 J/K/mol
78.98 K | 64.16 J/K/mol
80 K | 65.01 J/K/mol
80.55 K | 65.45 J/K/mol
81.45 K | 65.93 J/K/mol
82.22 K | 66.44 J/K/mol
83.86 K | 67.37 J/K/mol
83.98 K | 67.39 J/K/mol
85.47 K | 68.28 J/K/mol
86.45 K | 68.77 J/K/mol
87.05 K | 69.08 J/K/mol
88.6 K | 70 J/K/mol
88.86 K | 70.1 J/K/mol
90 K | 70.62 J/K/mol
90.14 K | 70.69 J/K/mol
91.23 K | 71.17 J/K/mol
91.65 K | 71.42 J/K/mol
93.14 K | 72.19 J/K/mol
93.56 K | 72.31 J/K/mol
94.61 K | 72.86 J/K/mol
94.95 K | 73 J/K/mol
95.84 K | 73.25 J/K/mol
96.07 K | 73.4 J/K/mol
97.51 K | 74.13 J/K/mol
98.08 K | 74.45 J/K/mol
98.92 K | 74.86 J/K/mol
100 K | 75.37 J/K/mol
100.29 K | 74.9 J/K/mol
101.72 K | 76.37 J/K/mol
102.39 K | 76.72 J/K/mol
102.47 K | 76.71 J/K/mol
103.09 K | 76.88 J/K/mol
104.45 K | 77.52 J/K/mol
104.61 K | 77.48 J/K/mol
105.8 K | 78.18 J/K/mol
105.97 K | 78.26 J/K/mol
106.72 K | 78.56 J/K/mol
107.13 K | 78.9 J/K/mol
107.15 K | 78.92 J/K/mol
108.46 K | 79.49 J/K/mol
108.81 K | 79.58 J/K/mol
109.46 K | 80.02 J/K/mol
109.77 K | 80.18 J/K/mol
110 K | 80.28 J/K/mol
110.87 K | 80.59 J/K/mol
111.07 K | 80.74 J/K/mol
111.47 K | 80.93 J/K/mol
112.36 K | 81.34 J/K/mol
112.87 K | 81.56 J/K/mol
113.65 K | 81.98 J/K/mol
114.92 K | 82.54 J/K/mol and 82.67 J/K/mol
115.68 K | 83.09 J/K/mol
116.19 K | 83.21 J/K/mol
116.91 K | 83.54 J/K/mol
118.88 K | 84.5 J/K/mol
119.52 K | 84.75 J/K/mol
119.79 K | 85.04 J/K/mol
120 K | 85.15 J/K/mol
120.83 K | 85.51 J/K/mol
122.75 K | 86.55 J/K/mol
124.68 K | 87.28 J/K/mol
125.93 K | 87.73 J/K/mol
126.58 K | 88.03 J/K/mol
127.78 K | 88.73 J/K/mol
128.47 K | 88.92 J/K/mol
129.07 K | 89.19 J/K/mol
130 K | 89.68 J/K/mol
130.33 K | 89.86 J/K/mol
131.66 K | 90.66 J/K/mol
132.19 K | 90.72 J/K/mol
134.03 K | 91.56 J/K/mol
135.22 K | 92.02 J/K/mol
135.48 K | 92.36 J/K/mol
135.85 K | 92.4 J/K/mol
137.66 K | 93.21 J/K/mol
138.23 K | 93.42 J/K/mol
139.24 K | 94.03 J/K/mol
140 K | 94.33 J/K/mol
141.21 K | 94.75 J/K/mol
141.25 K | 94.81 J/K/mol
142.95 K | 95.67 J/K/mol
144.16 K | 96.04 J/K/mol
146.61 K | 97.27 J/K/mol
147.08 K | 97.34 J/K/mol
149.97 K | 98.63 J/K/mol
150 K | 98.65 J/K/mol
150.22 K | 98.83 J/K/mol
152.83 K | 99.87 J/K/mol
153.79 K | 100.35 J/K/mol
155.66 K | 101.1 J/K/mol
157.32 K | 101.86 J/K/mol
158.47 K | 102.3 J/K/mol
160 K | 102.99 J/K/mol
160.81 K | 103.34 J/K/mol
161.25 K | 103.49 J/K/mol
164.01 K | 104.67 J/K/mol
164.27 K | 104.83 J/K/mol
166.74 K | 105.83 J/K/mol
167.69 K | 106.28 J/K/mol
169.46 K | 106.98 J/K/mol
170 K | 107.22 J/K/mol
